Results reported in patent US12077501B2, “Compounds and compositions for intracellular delivery of agents” (ModernaTX, Inc., priority 2017, dated 2024).

Legend:
hEPO expression [1] = assay: hEPO expression in CD-1 mice compared with MC3; assay type: in vivo; settings: intravenous, 0.5 mpk, Table 7e
Source text: (§1) In contrast, hEPO expression in rats induced by administration of a nanoparticle composition including a compound according to one of formulae (I), (Ia1)-(Ia6), (Ib), (II), (IIa), (III), and (IIIa) was substantially […] than that measured for MC3. […] Tables 7c and 7d show additional protein expressions and clearance data from compositions with various compounds disclosed herein as compared to with MC3. Tables 7e, 7f and 7g show hEPO expression data in CD-1 mice at a dose of 0.5 mpk.

[2] = Encapsulation efficiency of RNA (QUANT-IT RIBOGREEN RNA assay); assay type: physicochemical
Method: For nanoparticle compositions including an RNA, a QUANT-IT™ RIBOGREEN® RNA assay (Invitrogen Corporation Carlsbad, CA) can be used to evaluate the encapsulation of an RNA by the nanoparticle composition. The samples are diluted to a concentration of approximately 5 μg/mL in a TE buffer solution (10 mM Tris-HCl, 1 mM EDTA, pH 7.5). 50 μL of the diluted samples are transferred to a polystyrene 96 well plate and either 50 μL of TE buffer or 50 μL of a 2% Triton X-100 solution is added to the wells. The plate is incubated at a temperature of 37° C. for 15 minutes. The RIBOGREEN® reagent is diluted 1:100 in TE buffer, and 100 μL of this solution is added to each well. The fluorescence intensity can be measured using a fluorescence plate reader (Wallac Victor 1420 Multilablel Counter; Perkin Elmer, Waltham, MA) at an excitation wavelength of, for example, about 480 nm and an emission wavelength of, for example, about 520 nm. The fluorescence values of the reagent blank are subtracted from that of each of the samples and the percentage of free RNA is determined by dividing the fluorescence intensity of the intact sample (without addition of Triton X-100) by the fluorescence value of the disrupted sample (caused by the addition of Triton X-100).

[3] = Particle size and polydispersity index of nanoparticle compositions (Zetasizer Nano ZS); assay type: physicochemical
Method: A Zetasizer Nano ZS (Malvem Instruments Ltd, Malvem, Worcestershire, UK) can be used to determine the particle size, the polydispersity index (PDI) and the zeta potential of the nanoparticle compositions in 1×PBS in determining particle size and 15 mM PBS in determining zeta potential.

[4] = pKa of nanoparticle compositions; assay type: physicochemical
[5] = Lipid clearance: % dose remaining in liver of CD-1 mice; assay type: in vivo; settings: intravenous, 0.5 mg/kg, CD-1 mouse, Table 8a
Source text: as §1

[6] = Lipid purity change after storage in EtOH for 96 h at 25 or 37 °C; assay type: physicochemical
Method: Nanoparticle compositions including a therapeutic and/or prophylactic agent can be optimized according to the selection of a compound according to one of formulae (I), (Ia1)-(Ia10), (Ib), (Ic), (Id), (Id1)-(Id10), (Ie), (Ie1)-(Ie6), (II), (IIa), (III), and (IIIa), the selection of additional lipids, the amount of each lipid in the lipid component, and the wt:wt ratio of the lipid component to the therapeutic and/or prophylactic agent, as described herein. Initial studies were performed to compare the delivery efficiency of nanoparticle compositions including various compounds according to one of formulae (I), (Ia1)-(Ia10), (Ib), (Ic), (Id), (Id1)-(Id10), (Ie), (Ie1)-(Ie6), (II), (IIa), (III), and (IIIa). The cationic lipid MC3 is a current standard in the art. Also determined was the stability of nanoparticles of the disclosure, i.e., the purity after storage in EtOH for 96h at 25° C. or 37° C. (Table Id).

hEPO expression [7] = assay: hEPO (miR126 + miR142) mRNA expression, Tables 8b-8e; assay type: in vivo; settings: Table 8b
[8] = Table 1c, nanoparticle compositions
[9] = Table 1d, Formulated with lipid:Chol:DOPE:PEG 1 40:38.5:20:1.5

| SMILES | AUC (p/s*h) CD-1 mice 0.5 mpk (hEPO expression [1]) [p/s*h] | EE (%) [2, 8] [%] | PDI [3, 8] | Size (nm) [3, 8] [nm] | pKa ([4]; Table 1c) | % Dose Remaining 24 hr [5] [%] | also measured |
| --- | --- | --- | --- | --- | --- | --- | --- |
| CCCCCCCCCN(CCCCCCCCC)CCN(CCCCCCCCC)CC(=O)N1CCC(CCOC(=O)CN(CCCCCCCCC)CCCCCCCCC)CC1 [Compound 114, 2-(1-(N-(2-(Dinonylamino)ethyl)-N-nonylglycyl)piperidin-4-yl)ethyl dinonylglycinate] | 7.86E+07 | 98.1 | 0.23 | 77.2 | 6.64 | 38.43 | Lipid % change purity in EtOH, 25° C., 96 h [6]: 2.6%; Lipid % change purity in EtOH, 37° C., 96 h [6]: 9% |
| CCCCCC/C=C\COC(=O)CCCN(CCCCCCCCCCCCCC)CC(=O)N1CCN(C(=O)CN(CCCCCCCCC)CCN(CCCCCCCCC)CCCCCCCCC)CC1 [Compound 118, (Z)-Non-2-en-1-yl 4-((2-(4-(N-(2-(dinonylamino)ethyl)-N-nonylglycyl)piperazin-1-yl)-2-oxoethyl)(tetradecyl)amino)butanoate] | 1.64E+08 | 97.8 | 0.20 | 82.3 | 6.7 | 55.92 |  |
| CCCCCCCCCCCCCCN(CCCCCC(=O)OCCCCCCC)CCC1CCN(C(=O)CN(CCCCCCCCC)CCN(CCCCCCCCC)CCCCCCCCC)C1 (stereo not shown) [Compound 125, Heptyl 6-((2-(1-(N-(2-(dinonylamino)ethyl)-N-nonylglycyl)pyrrolidin-3-yl)ethyl)(tetradecyl)amino)hexanoate] | 7.89E+06 |  |  |  | 6.89 | 2.74 |  |
| CCCCCCCCCCCCCCN(CCCOC(=O)CCCCCCCCC)CCC1CCN(C(=O)CN(CCCCCCCCC)CCN(CCCCCCCCC)CCCCCCCCC)CC1 [Compound 92, 3-((2-(1-(N-(2-(Dinonylamino)ethyl)-N-nonylglycyl)piperidin-4-yl)ethyl)(tetradecyl)amino)propyl decanoate] | 8.25E+07 | 97.1 | 0.17 | 73.8 | 6.53 | 0.10 | Lipid % change purity in EtOH, 25° C., 96 h [6]: 4.5%; Lipid % change purity in EtOH, 37° C., 96 h [6]: 9% |
| CCCCCCCCCN(CCCCCCCCC)CCN(CCCCCCCCC)CC(=O)N1CCN(C(=O)C(C)N(CCCCCCCCC)CCCC(=O)OCCCCC)CC1 (stereo not shown) [Compound 111, Pentyl 4-((1-(4-(N-(2-(dinonylamino)ethyl)-N-nonylglycyl)piperazin-1-yl)-1-oxopropan-2-yl)(nonyl)amino)butanoate] | 1.75E+08 | 96.7 | 0.21 | 86.8 | 6.82 | 59.89 | Lipid % change purity in EtOH, 25° C., 96 h [6]: 6.3%; Lipid % change purity in EtOH, 37° C., 96 h [6]: 6.5% |
| CCCCCCCCCCCCCCN(CCCCCCCCCCCC(=O)OC)CCC1CCCN(C(=O)CN(CCCCCCCCC)CCN(CCCCCCCCC)CCCCCCCCC)C1 (stereo not shown) [Compound 123, Methyl 12-((2-(1-(N-(2-(dinonylamino)ethyl)-N-nonylglycyl)piperidin-3-yl)ethyl)(tetradecyl)amino)dodecanoate] | 5.84E+07 |  |  |  | 6.51 | 3.75 |  |
| CCCCCCCCCN(CCCCC(=O)OCCCC)CCC1CCN(C(=O)CN(CCCCCCCCC)CCN(CCCCCCCCC)CCCCCCCCC)CC1 [Compound 60, Butyl 5-((2-(1-(N-(2-(dinonylamino)ethyl)-N-nonylglycyl)piperidin-4-yl)ethyl)(nonyl)amino)pentanoate] | 4.86E+07 |  |  |  |  |  | pKa ([4]; Table 1b): 6.66 |
| CCCCCCCCCN(CCCCCCCCC)CCC1CCN(C(=O)CN(CCCCCCCCC)CCN(CCCCCCCCC)CCCCCCCCC)CC1 [Compound 49, 2-((2-(Dinonylamino)ethyl)(nonyl)amino)-1-(4-(2-(dinonylamino)ethyl)piperidin-1-yl)ethan-1-one] | 1.59E+08 |  |  |  |  |  |  |
| CCCCCCCCCN(CCCCCCCCC)CCC(=O)N1CCN(C(=O)CCN(CCCCCCCCC)CCN(CCCCCCCCC)CCCCCCCCC)CC1 [Compound 52, 3-(Dinonylamino)-1-(4-(3-((2-(dinonylamino)ethyl)(nonyl)amino)propanoyl)piperazin-1-yl)propan-1-one] | 7.78E+07 |  |  |  |  |  |  |
| CCCCCCCCCN(CCCOC(=O)CCCCC)CCC1CCN(C(=O)CN(CCCCCCCCC)CCN(CCCCCCCCC)CCCCCCCCC)CC1 [Compound 61, 3-((2-(1-(N-(2-(Dinonylamino)ethyl)-N-nonylglycyl)piperidin-4-yl)ethyl)(nonyl)amino)propyl hexanoate] | 6.29E+07 |  |  |  |  |  | pKa ([4]; Table 1b): 6.61 |
| CCCCCCCCCN(CCCCCCCCC)CCN(CCCCCCCCC)CC(=O)N1CCN(C(=O)CN(CCCCCCCCC)CCCC(=O)OCCCCC)CC1 [Compound 45, Pentyl 4-((2-(4-(N-(2-(dinonylamino)ethyl)-N-nonylglycyl)piperazin-1-yl)-2-oxoethyl)(nonyl)amino)butanoate] | 6.98E+07 |  |  |  |  |  |  |
| CCCCCCCCCN(CCCCCCCCC)CCN(CCCCCCCCC)CC(=O)OCCOC(=O)CN(CCCCCCCCC)CCCCCCCCC [Compound 150, 2-((N-(2-(Dinonylamino)ethyl)-N-nonylglycyl)oxy)ethyl dinonylglycinate] | 2.29E+05 |  |  |  | 5.10 | 57.89 |  |
| CCCCCCCCCN(CCCCCCCCC)CCN(CCCCCCCCC)CC(=O)N1CCC(COC(=O)CN(CCCCCCCCC)CCCCCCCCC)C1 (stereo not shown) [Compound 102, (1-(N-(2-(Dinonylamino)ethyl)-N-nonylglycyl)pyrrolidin-3-yl)methyl dinonylglycinate] | 6.34E+06 | 97.6 | 0.23 | 71.5 | 5.85 |  | Lipid % change purity in EtOH, 25° C., 96 h [6]: 14.8%; Lipid % change purity in EtOH, 37° C., 96 h [6]: 31.5% |
| CCCCCCCCCN(CCCCCCCCC)CCN(CCCCCCCCC)CC(=O)N1CCN(C(=O)CN(CCCCCCCCC)CCCOC(=O)CCCCC)CC1 [Compound 56, 3-((2-(4-(N-(2-(Dinonylamino)ethyl)-N-nonylglycyl)piperazin-1-yl)-2-oxoethyl)(nonyl)amino)propyl hexanoate] | 4.52E+07 |  |  |  |  |  | pKa ([4]; Table 1b): 6.94 |
| CCCCCCCCCN(CCCC(=O)OCCCCC)CCN(CCCCCCCCC)CC(=O)N1CCN(C(=O)CN(CCCCCCCCC)CCCC(=O)OCCCCC)CC1 [Compound 71, Pentyl 4-(nonyl(2-(4-(N-nonyl-N-(2-(nonyl(4-oxo-4-(pentyloxy)butyl)amino)ethyl)glycyl)piperazin-1-yl)-2-oxoethyl)amino)butanoate] | 2.48E+07 |  |  |  |  |  | pKa ([4]; Table 1b): 6.44 |
| CCCCCCCCCN(CCCCCCCCC)CCN(CCCCCCCCC)CC(=O)N(C)CCCCN(C)C(=O)CN(CCCCCCCCC)CCCCCCCCC [Compound 159, 2-(dinonylamino)-N-(4-(2-((2-(dinonylamino)ethyl)(nonyl)amino)-N-methylacetamido)butyl)-N-methylacetamide] |  |  |  |  |  |  | AUC (hEPO expression [7]): 6.56e+07 pg·h/mL; EE (%) [2, 9]: 92.9%; PDI [3, 9]: 0.12; Size (nm) [3, 9]: 76.5 nm |
| CCCCCCCCCN(CCCCCCCCC)CC(=O)N1CCN(C(=O)CN(CCCCCCCCC)CCCCCCCCC)CC1 [Compound 112, 1,1′-(piperazine-1,4-diyl)bis(2-(dinonylamino)ethan-1-one)] | 1.78E+04 | 97.1 | 0.22 | 73.5 | 6.14 | 46.37 |  |
